Assay results taken from patent US10428026B2, “Pyridinone dicarboxamide for use as bromodomain inhibitors” (GlaxoSmithKline Intellectual Property (No.2) Limited, priority 2015, dated 2019).

Molecular target: T1, BRD4 BD2 (Homo sapiens, UniProt O60885, Y97A)
T1 construct: BRD4 (1-477) (Y97A) and (Y390A); made in house; host or cells: E. coli (pET15b vector)
Assay: BRD4 BD2 TR-FRET competition assay
Type: binding
Details: BRD4 BD2 TR-FRET; read-out: pIC50 in the BRD4 BD2 assay (converted)

IC50, 1 to 100 µM:
CNC(=O)c1cc(C(=O)N[C@@H]2CCCC[C@H]2O)cn(Cc2ccccc2)c1=O (racemic) [Example 185, (+/−)-1-Benzyl-N5-((trans)-2-hydroxycyclohexyl)-N3-methyl-2-oxo-1,2-dihydropyridine-3,5-dicarboxamide]
CNC(=O)c1cc(C(=O)N[C@@H]2CCCC[C@@H]2O)cn(Cc2ccccc2)c1=O (racemic) [Example 186, (+/−)-1-Benzyl-N5-((cis)-2-hydroxycyclohexyl)-N3-methyl-2-oxo-1,2-dihydropyridine-3,5-dicarboxamide]
CNC(=O)c1cc(C(=O)NC[C@H]2CCC[C@@H]2O)cn(Cc2ccccc2)c1=O (racemic) [Example 196, (+/−)-1-Benzyl-N5-(((1R,2S)-2-hydroxycyclopentyl)methyl)-N3-methyl-2-oxo-1,2-dihydropyridine-3,5-dicarboxamide]
CNC(=O)c1cc(C(=O)NC[C@@H]2CC[C@@H](O)C2)cn(Cc2ccccc2)c1=O (racemic) [Example 198, (+/−)-1-Benzyl-N5-(((trans)-3-hydroxycyclopentyl)methyl) N3-methyl-2-oxo-1,2-dihydropyridine-3,5-dicarboxamide]
CNC(=O)c1cc(C(=O)NC[C@@H]2CC[C@H](O)C2)cn(Cc2ccccc2)c1=O (racemic) [Example 199, (+/−)-1-Benzyl-N5-(((cis)-3-hydroxycyclopentyl)methyl)-N3-methyl-2-oxo-1,2-dihydropyridine-3,5-dicarboxamide]
CNC(=O)c1cc(C(=O)NC[C@@H]2CCC[C@H](O)C2)cn(Cc2ccccc2)c1=O (racemic) [Example 206, (+/−)-1-Benzyl-N5-(((1R,3S)-3-hydroxycyclohexyl)methyl)-N3-methyl-2-oxo-1,2-dihydropyridine-3,5-dicarboxamide]
CCO[C@H]1C[C@H]1NC(=O)c1cc(C(=O)NC)c(=O)n(Cc2cccc(F)c2)c1 (racemic) [Example 208, (+/−)-N5-((cis)-2-ethoxycyclopropyl)-1-(3-fluorobenzyl)-N3-methyl-2-oxo-1,2-dihydropyridine-3,5-dicarboxamide]
CCO[C@H]1C[C@H]1NC(=O)c1cc(C(=O)NC)c(=O)n(Cc2cccc(C)c2)c1 (racemic) [Example 222, (+/−)-N5-((cis)-2-ethoxycyclopropyl)-N3-methyl-1-(3-methylbenzyl)-2-oxo-1,2-dihydropyridine-3,5-dicarboxamide]
CNC(=O)c1cc(C(=O)N[C@@H]2CC[C@H]2OC)cn(Cc2ccccc2)c1=O (racemic) [Example 243, (+/−)-1-Benzyl-N5-((trans)-2-methoxycyclobutyl)-N3-methyl-2-oxo-1,2-dihydropyridine-3,5-dicarboxamide]
CNC(=O)c1cc(C(=O)NC2CC2)cn(CC2CCCc3[nH]cnc32)c1=O (racemic) [Example 250, (+/−)-N5-Cyclopropyl-N3-methyl-2-oxo-1-((4,5,6,7-tetrahydro-1H-benzo[d]imidazol-4-yl)methyl)-1,2-dihydropyridine-3,5-dicarboxamide]
CNC(=O)c1cc(C(=O)N[C@@H]2C[C@H]2CO)cn(C(C)c2cccc(C)c2)c1=O (mixture of isomers) [Example 267, N5-((trans)-2-(Hydroxymethyl)cyclopropyl)-N3-methyl-2-oxo-1-((S*)-1-(m-tolyl)ethyl)-1,2-dihydropyridine-3,5-dicarboxamide]
CNC(=O)c1cc(C(=O)N[C@@H]2CCC[C@@H](O)C2)cn(Cc2ccccc2)c1=O (relative stereo) [Example 217, 1-Benzyl-N5-((1R*,3R*)-3-hydroxycyclohexyl)-N3-methyl-2-oxo-1,2-dihydropyridine-3,5-dicarboxamide]
CNC(=O)c1cc(C(=O)NC2CC2)cn(C(C)c2cccc(C)c2)c1=O (single isomer, unassigned) [Example 211, (S*)-N5-Cyclopropyl-N3-methyl-2-oxo-1-(1-(m-tolyl)ethyl)-1,2-dihydropyridine-3,5-dicarboxamide]
CNC(=O)c1cc(C(=O)NC2CC2)cn(C(C)c2ccccc2C)c1=O (single isomer, unassigned) [Example 213, (R*)-N5-Cyclopropyl-N3-methyl-2-oxo-1-(1-(o-tolyl)ethyl)-1,2-dihydropyridine-3,5-dicarboxamide]
CNC(=O)c1cc(C(=O)NC2CC2(C)C)cn(Cc2ccccc2)c1=O (single isomer, unassigned) [Example 248, (R*)-1-Benzyl-N5-(2,2-dimethylcyclopropyl)-N3-methyl-2-oxo-1,2-dihydropyridine-3,5-dicarboxamide]
CNC(=O)c1cc(C(=O)NC2CC2)cn(C(CO)c2ccccc2)c1=O (single isomer, unassigned) [Example 324, (R*)—N^5-Cyclopropyl-1-(2-hydroxy-1-phenylethyl)-N^3-methyl-2-oxo-1,2-dihydropyridine-3,5-dicarboxamide]
CNC(=O)c1cc(C(=O)NC2CCC2)cn(Cc2cnn(C)c2)c1=O [Example 163, N5-Cyclobutyl-N3-methyl-1-((1-methyl-1H-pyrazol-4-yl)methyl)-2-oxo-1,2-dihydropyridine-3,5-dicarboxamide]
CNC(=O)c1cc(C(=O)NC2CCC2c2ccccc2)cn(Cc2ccccc2)c1=O (stereo not shown) [Example 168, 1-Benzyl-N3-methyl-2-oxo-N5-(2-phenylcyclobutyl)-1,2-dihydropyridine-3,5-dicarboxamide]
CNC(=O)c1cc(C(=O)N[C@H]2C[C@@H](C(=O)O)C2)cn(Cc2ccccc2)c1=O [Example 169, (cis)-3-(1-Benzyl-5-(methylcarbamoyl)-6-oxo-1,6-dihydropyridine-3-carboxamido)cyclobutane-carboxylic acid]
CNC(=O)c1cc(C(=O)NC2CCC2)cn([C@@H](C)c2ccccc2)c1=O [Example 171, (S)-N5-Cyclobutyl-N3-methyl-2-oxo-1-(1-phenylethyl)-1,2-dihydropyridine-3,5-dicarboxamide]
CNC(=O)c1cc(C(=O)NC2(CC(C)C)CC2)cn(Cc2ccccc2)c1=O [Example 173, 1-Benzyl-N5-(1-isobutylcyclopropyl)-N3-methyl-2-oxo-1,2-dihydropyridine-3,5-dicarboxamide]
CCOC1CC(NC(=O)c2cc(C(=O)NC)c(=O)n(Cc3ccccc3)c2)C1OC (stereo not shown) [Example 177, 1-Benzyl-N5-(3-ethoxy-2-methoxycyclobutyl)-N3-methyl-2-oxo-1,2-dihydropyridine-3,5-dicarboxamide]
CCCC1(NC(=O)c2cc(C(=O)NC)c(=O)n(Cc3ccccc3)c2)CC1 [Example 178, 1-Benzyl-N3-methyl-2-oxo-N5-(1-propylcyclopropyl)-1,2-dihydropyridine-3,5-dicarboxamide]
CNC(=O)c1cc(C(=O)NC2CCC2)cn(Cc2ccc(C(=O)OC)cc2)c1=O [Example 180, Methyl 4-((5-(cyclobutylcarbamoyl)-3-(methylcarbamoyl)-2-oxopyridin-1(2H)-yl)methyl)benzoate]
CNC(=O)c1cc(C(=O)NC2CC2)cn(CCCc2ccccc2)c1=O [Example 190, N5-Cyclopropyl-N3-methyl-2-oxo-1-(3-phenylpropyl)-1,2-dihydropyridine-3,5-dicarboxamide]
CNC(=O)c1cc(C(=O)NCC2CCCCC2O)cn(Cc2ccccc2)c1=O (stereo not shown) [Example 194, 1-Benzyl-N5-((2-hydroxycyclohexyl)methyl)-N3-methyl-2-oxo-1,2-dihydropyridine-3,5-dicarboxamide]
CNC(=O)c1cc(C(=O)NC[C@H]2CC[C@H](O)CC2)cn(Cc2ccccc2)c1=O [Example 200, 1-Benzyl-N5-(((trans)-4-hydroxycyclohexyl)methyl)-N3-methyl-2-oxo-1,2-dihydropyridine-3,5-dicarboxamide]
CNC(=O)c1cc(C(=O)NC[C@H]2CC[C@@H](O)CC2)cn(Cc2ccccc2)c1=O [Example 201, 1-Benzyl-N5-(((cis)-4-hydroxycyclohexyl)methyl)-N3-methyl-2-oxo-1,2-dihydropyridine-3,5-dicarboxamide]
CNC(=O)c1cc(C(=O)NC2CC2CO)cn(Cc2cccc(C)c2F)c1=O (stereo not shown) [Example 214, 1-(2-Fluoro-3-methylbenzyl)-N5-(2-(hydroxymethyl)cyclopropyl)-N3-methyl-2-oxo-1,2-dihydropyridine-3,5-dicarboxamide]
CNC(=O)c1cc(C(=O)N[C@@H]2CCC[C@H](O)C2)cn(Cc2ccccc2)c1=O [Example 219, 1-Benzyl-N5-((1R,3S)-3-hydroxycyclohexyl)-N3-methyl-2-oxo-1,2-dihydropyridine-3,5-dicarboxamide]
CNC(=O)c1cc(C(=O)NC2CC2)cn(CC2COc3ccccc32)c1=O (stereo not shown) [Example 268, N5-Cyclopropyl-1-((2,3-dihydrobenzofuran-3-yl)methyl)-N3-methyl-2-oxo-1,2-dihydropyridine-3,5-dicarboxamide]
CNC(=O)c1cc(C(=O)N[C@H]2C[C@@H]2C)cn(Cc2cc(OC)ccn2)c1=O [Example 334, 1-((4-Methoxypyridin-2-yl)methyl)-N^3-methyl-N^5-((1S,2S)-2-methylcyclopropyl)-2-oxo-1,2-dihydropyridine-3,5-dicarboxamide]
CNC(=O)c1cc(C(=O)N[C@H]2C[C@@H]2C)cn(Cc2cc(C)ccn2)c1=O [Example 335, N^3-Methyl-N^5-((1S,2S)-2-methylcyclopropyl)-1-((4-methylpyridin-2-yl)methyl)-2-oxo-1,2-dihydropyridine-3,5-dicarboxamide]
CNC(=O)c1cc(C(=O)N[C@H]2C[C@@H]2C)cn(Cc2ccc(C(=O)O)cc2)c1=O [Example 339, 4-((3-(Methylcarbamoyl)-5-(((1S,2S)-2-methylcyclopropyl)carbamoyl)-2-oxopyridin-1(2H)-yl)methyl)benzoic acid]
